Reference: patent US9730445B2, “Herbicidal compositions comprising 4-amino-3-chloro-5-fluoro-6-(4-chloro-2-fluoro-3-methoxyphenyl) pyridine-2-carboxylic acid or a derivative thereof and fungicides” (DOW AGROSCIENCES LLC, priority 2013, dated 2017)
“And” between values parts separate entries of the source, which are not always exact repeats. Equal values may be shown once.

Experiments:
DIGSA = assay: Postemergence foliar-applied weed control, direct-seeded rice (greenhouse); assay type: in vivo, Digitaria sanguinalis (L.) Scop. (large crabgrass)
CYPES = assay: as above; assay type: in vivo, Cyperus esculentus L. (yellow nutsedge)
Protocol: Seeds or nutlets of the desired test plant species were planted in a soil matrix prepared by mixing aloam or sandy loam soil (e.g., 28.6 percent silt, 18.8 percent clay, and 52.6 percent sand, with a pH of about 5.8 and an organic matter content of about 1.8 percent) and calcareous grit in an 80 to 20 ratio. The soil matrix was contained in plastic pots with a volume of 1 quart and a surface area of 83.6 square centimeters (cm^2). […] The plants were grown for 8-22 days in a greenhouse with an approximate 14 hour (h) photoperiod which was maintained at about 29° C. during the day and 26° C. during the night. Nutrients (Peters Excel® 15-5-15 5-Ca 2-Mg and iron chelate) were applied in the irrigation solution as needed and water was added on a regular basis. Supplemental lighting was provided with overhead metal halide 1000-Watt lamps as necessary. The plants were employed for testing when they reached the first through fourth true leaf stage.
Treatments consisted of the acid or esters of 4-amino-3-chloro-5-fluoro-6-(4-chloro-2-fluoro-3-methoxy-phenyl)pyridine-2-carboxylic acid (Compound A), each formulated as an SC (suspension concentrate), and various fungicidal components alone and in combination. Forms of compound A were applied on an acid equivalent basis.
For treatments comprised of formulated compounds, measured amounts of compounds were placed individually in 25 mL glass vials and diluted in a volume of 1.25% volume per volume (v/v) Agri-Dex® crop oil concentrate to obtain 12× stock solutions. […] Application solutions were prepared by adding an appropriate amount of each stock solution (e.g., 1 mL) and diluted to the appropriate final concentrations with the addition of […] of an aqueous mixture of 1.25% (v/v) crop oil concentrate so that the final spray solutions contained 1.25+/−0.05% (v/v) crop oil concentrate.
For treatments comprised of technical compounds, weighed amounts can be placed individually in 25 mL glass vials and dissolved in a volume of 97:3 volume per volume (v/v) acetone/dimethyl sulfoxide (DMSO) to obtain 12× stock solutions. […] When technical materials are used, the concentrated stock solutions can be added to the spray solutions so that the final acetone and DMSO concentrations of the application solutions are 16.2% and 0.5%, respectively.
As required, additional water and/or 97:3 v/v acetone/DMSO was added to individual application solutions so that the final acetone and DMSO concentrations of the application solutions being compared were 8.1% and 0.25%, respectively
All stock solutions and applications solutions were visually inspected for compound compatibility prior to application. Spray solutions were applied to the plant material with an overhead Mandel track sprayer equipped with 8002E nozzles calibrated to deliver 187 L/ha over an application area of 0.503 square meters (m^2) at a spray height of 18 to 20 inches (46 to 50 cm) above average plant canopy height. Control plants were sprayed in the same manner with the solvent blank.
The treated plants and control plants were placed in a greenhouse as described above and watered by sub-irrigation to prevent wash-off of the test compounds. After approximately 3 weeks, the condition of the test plants as compared with that of the untreated plants was determined visually and scored on a scale of 0 to 100 percent where 0 corresponds to no injury or growth inhibition and 100 corresponds to complete kill. […]

Structure (SMILES): COc1c(Cl)ccc(-c2nc(C(=O)OCc3ccccc3)c(Cl)c(N)c2F)c1F [Compound A Benzyl Ester]
- Visual Weed Control (%)—20 DAA DIGSA Obs (DIGSA; 20 DAA, r21-23 ester 8/16/32 g ae/ha alone, r24-25 isotianil 100/200 g ai/ha alone, r26-31 ester 8/16/32 at each of 100, 200): 20% and 30% and 40%
- Visual Weed Control (%)—21 DAA DIGSA Obs (DIGSA; 21 DAA, r38-39 ester 8/16 g ae/ha alone, r40 isotianil 380 g ai/ha alone, r41-42 ester 8/16 + 380): 15% and 25%
- Visual Weed Control (%) - 22 DAA DIGSA Obs (DIGSA; 22 DAA, r22-24 ester 8/16/32 g ae/ha alone, r25-27 difenoconazole 50/100/200 g ai/ha alone, r28-36 ester 8/16/32 at each of 50, 100, 200): 15% and 23% and 28%
- Visual Weed Control (%) - 21 DAA CYPES Obs (CYPES; r26 ester 8 g ae/ha alone, r27-29 phthalide 100/200/300 g ai/ha alone, r30-32 ester 8 + 100/200/300): 10%
- Visual Weed Control (%)—21 DAA CYPES Obs (CYPES; r45 ester 8 g ae/ha alone, r46-48 kasugamycin 17.5/35/70 g ai/ha alone, r49-51 ester 8 + 17.5/35/70): 70%
